Test results published in EP0373658A2, “Use of quinoline derivatives in treating cancer” (priority 1988, dated 1990).

Experiments:
[1] = system: serum prolactin; assay: lowering basal serum prolactin levels in the male rat (prolactin secretion inhibition); type: in vivo
From the text: Many of the above mentioned compounds are published as prolactin secretion inhibitors, some of which are extremely potent and have long lasting activity. The potency of the compounds as prolactin secretion inhibitors can be determined in standard tests, e.g. by lowering basal serum prolactin levels in the male rat.

[2] = system: operable breast cancer; assay: Clinical trial II: antiproliferative effect in operable breast cancer; type: in vivo, women; settings: oral, 20 days, 50 to 200 ug/day/p.o.; compound A 25 µg/day days 0 to 3, 50 µg/day days 4 to 6, 75 µg/day until day 20
From the text: 24 to 36 women with operable breast cancer, aged less than 70 years, in whom a positive biopsy cut has been obtained at the first clinic visit are selected. The patients are not be taking any chronic medication which is known to influence serum prolactin levels. The trial is effected on a randomized double blind basis. All patients are to have baseline evaluations before beginning treatment.
The women are given an oral dose of a COMPOUND OF THE INVEN-TION or placebo for 20 days, starting on day 0. They are operated on day 10 with either breast conservation or modified radical mastectomy. Prolactin levels in plasma are measured on days 0, 6, 10, 13 and 20. Histological evaluations are performed on days 1 and 10.

[3] = 52 week toxicology studies in rats; type: in vivo; settings: oral doses, 0.20 mg/kg/day
[4] = system: 5-HT sensitive adenylate cyclase of the liver fluke; assay: activation of 5-HT sensitive adenylate cyclase of the liver fluke (method of R. Markstein); type: biochemical; settings: adenylate cyclase stimulated by serotonin
From the text: A group of compounds comprises compounds which are D₂ agonists without any antagonistic activity. Another group of compounds includes those compounds which are serotonin agonists, e.g. as indicated in standard in vitro binding tests and by activation of 5-HT sensitive adenylate cyclase of the liver fluke according to the method of R.Markstein, Neurochemical Effects of Some Ergot Derivatives: A Basis for their Antiparkinson Actions. J. Neural transm 51:39, (1981).
Examples of such compounds include compound C and pergolide. Compound C, pergolide and 5-HT agonists have efficacies of 90, 80, and 100 respectively and pD₂ [10g EC₅₀] of 6.9, 6.9 and 7.7 respectively in this test on adenylate cyclase stimulated by serotonin.

Row | SMILES | ID₅₀ mg/kg after 4 hours [1] [mg/kg] | mitotic rate [2] | toxic effects [3] | efficacies [4] | pD₂ [10g EC₅₀] [4]
1 | CN1C[C@@H](NS(=O)(=O)N(C)C)C[C@@H]2c3cccc4c3c(cn4C)C[C@H]21 [B, 1,6-dimethyl-8α-(N,N-dimethylsulphamoylamino)-ergoline-I] | 0.003 | – | – | – | –
2 | CCCN1CC(NS(=O)(=O)N(CC)CC)CC2Cc3c(O)cccc3CC21 (stereo not drawn) [Compound A, N,N-diethyl-N′-[(3α,4aα,10aβ)-1,2,3,4,4a,5,10,10a-octahydro-6-hydroxy-1-propyl-3-benzo[g]-quinolinyl] sulfamide] | 0.03 | satisfactory results indicative of a reduced mitotic rate | no toxic effects are observed | – | –
3 | CCCN1C[C@@H](NS(=O)(=O)N(CC)CC)C[C@@H]2c3cccc4[nH]cc(c34)C[C@H]21 [Compound C, 6-n-propyl-8α-(N,N-diethylsulphamoylamino)-ergoline-I] | 0.001 | – | – | 90 | 6.9
4 | CCCN1C[C@H](CSC)C[C@@H]2c3cccc4[nH]cc(c34)C[C@H]21 [pergolide, 6-n-propyl-8α-methylmercaptomethyl-ergoline-I, reference compound] | – | – | – | 80 | 6.9
